Data from patent US20040048747A1, “Product formulation and method of its application for increasing the efficiency of systemic herbicides” (priority 2000, published 2004).

What was measured:
Format in all cases: in vivo
Poa annua = test: Greenhouse pot spray test, potassium diformate and glyphosate combinations (Example 1), Poa annua; settings: glyphosate alone, compared with the combination
From the text: (§1) The aim of this experiment was to investigate if a small dose of glyphosate, a foliage applied systemic herbicide, could extend the herbicide effect of potassium diformate. This is in particular important in perennial weeds, but also to have a complete kill of annual weeds.
(§2) Control of annual weeds will be essential in garden paths, roads, roadsides and other areas covered with gravel, bricks or flag stones. The weed must be totally killed since there is no competition from crop plants like in crop use situations. The aim of the experiment in greenhouse was to find methods to have optimal herbicide effect of K-diformate on different weed species and rape, which served as a model weed.
(§3) Seeds were sown in trays, and 2 seedlings were transplanted to 12 cm pots. The soil used was a mixture of 84% sphagnum, 10% sand and 6% clay. The pH was 5.8 and the soil was amended with balanced nutrients.
(§4) The temperature was set to 20° C. for 16 hours, 14° C. for 8 hours, but it varied ±3° C. Light period followed the natural day lengths, but artificial light was supplied 16 hours per day.
(§5) A wetting agent (0.1%) was used in order to secure complete contact with the plants to be treated. […]
(§6) Damage or injury of the plants was visually assessed after the following scale: […]

[1] = tested on: Dandelion (Taráxacum cordátum); test: Greenhouse pot spray test, potassium diformate and glyphosate combinations (Example 1), dandelion; settings: glyphosate alone, compared with the combination
From the text: as §1, §2, §3, §4, §5, §6

[2] = tested on: dandelion (Taraxacum cordátum Palmgr.); test: Greenhouse pot spray test, selected formates with selected systemic herbicides (Example 3), dandelion; settings: for desiccation of the leaves / damage (necrosis): formates 3000 ml (g) per decar, 6, 14 and 21 days after spraying
Method: Potassium diformate in a 50% water/volume solution (coded K-diform in the enclosed graphs). Potassium formate (50% w/v) (coded K-form in the enclosed graphs). Solid calcium formate solid was dissolved in water and coded Ca-form in the enclosed graphs. Dose rates applied were: 0 and 3000 ml (g) per decar (10^3 m^2).
“Roundup Bio” (360 gram/litre glyphosate), “Arsenal 250” (250 gram/litre imazapyr) and “Titus” (250 gram/kg rimsulfuron). The herbicides were applied at dose rates: 10%-40% of full rate:
Adjuvant: 0.1% wetting agent (“DP-spredemiddel”)
The formates, herbicides and adjuvants were mixed before spraying and applied at a calculated spray volume of 50 litre per decar (10^3 m^2). Seven pots were given each treatment.
The investigations were done on dandelion (Taraxacum cordátum Palmgr.):
The dandelion seeds were sown June 20 and transplanted to 13 cm plastic pots, one plant per pot. The plants were raised in a greenhouse. The spraying was carried out August 1 and the plants kept in greenhouse until harvest. Greenhouse conditions: 20-25° C. in 16 hrs, 14° C. in 8 hrs. Day length: 16 hrs artificial light.
Assessments of damage (necrosis): 6, 14 and 21 days after treatment (DAT). Regrowth and fresh weight were assessed 21 days after spraying.

| SMILES | herbicide effect (speed and efficiency) (Poa annua) | herbicide effect (speed and efficiency) [1] | desiccation of the leaves / damage (necrosis) [2] | regrowth after mixing herbicide with formate ([2]; 21 days after spraying, lowest dose rates of Roundup and Titus, compared between formates) |
| --- | --- | --- | --- | --- |
| O=C(O)CNCP(=O)(O)O [glyphosate] | much slower and very much less efficient | much slower and very much less efficient | – | – |
| O=C[O-].[K+] [K-formate, Potassium formate] | – | – | less effective | – |
| O=CO.O=C[O-].[K+] [potassium diformate] | – | – | desiccated the leaves quickly | higher after mixing with K-diformate than mixing with Ca- or K-formate |
| O=C[O-].O=C[O-].[Ca+2] [Ca-formate, calcium formate] | – | – | even less effective than K-formate | – |
